Reference: patent US20250346585A1 (Alexion Pharmaceuticals, Inc., priority 2022, published 2025)

The molecules below were run against Human complement C1s enzyme (Homo sapiens (Human), UniProt P09871) (assay: Human C1s enzyme assay). Conditions: Human C1s enzyme assay of Example 3; read-out: IC50 (Stars).
Format: biochemical
Procedure, shortened: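 IC50 derived by nonlinear regression of rate versus concentration, with rate taken from A405 kinetics (30 s intervals, 30 min) after adding 100 μM each Z-L-Lys-SBzl and DTNB. C1s from human serum, 1.16 nM, exposed to compound for 5 min at RT beforehand; buffer 50 mM Tris, 1 M NaCl, pH 7.5.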

Chain of Human complement C1s enzyme (P09871 438-688 limits assumed): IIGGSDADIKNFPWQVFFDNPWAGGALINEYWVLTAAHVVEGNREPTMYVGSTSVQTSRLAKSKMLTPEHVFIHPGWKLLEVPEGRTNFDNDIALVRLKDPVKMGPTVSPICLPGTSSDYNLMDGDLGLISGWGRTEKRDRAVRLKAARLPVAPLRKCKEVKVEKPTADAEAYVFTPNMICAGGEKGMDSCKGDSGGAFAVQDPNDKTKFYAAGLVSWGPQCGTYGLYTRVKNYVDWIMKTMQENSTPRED
Chain of Human complement C1s enzyme (P09871 16-437 partner limits assumed): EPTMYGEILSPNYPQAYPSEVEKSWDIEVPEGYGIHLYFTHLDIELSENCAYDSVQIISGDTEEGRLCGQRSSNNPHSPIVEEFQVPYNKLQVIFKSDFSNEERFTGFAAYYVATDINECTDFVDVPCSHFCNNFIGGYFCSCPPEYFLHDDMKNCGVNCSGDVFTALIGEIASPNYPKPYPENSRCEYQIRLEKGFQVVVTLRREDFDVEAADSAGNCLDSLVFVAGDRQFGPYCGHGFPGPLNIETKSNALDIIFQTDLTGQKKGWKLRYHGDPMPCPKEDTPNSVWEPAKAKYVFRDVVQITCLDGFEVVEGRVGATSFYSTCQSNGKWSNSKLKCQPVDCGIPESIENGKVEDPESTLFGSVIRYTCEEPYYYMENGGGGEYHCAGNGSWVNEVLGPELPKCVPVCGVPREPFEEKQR

Structure (SMILES) | IC50 [nM]
CC(C)c1ccc(Oc2ccc(C(=O)NCC(=O)N3C[C@H](OC(F)F)C[C@H]3C(=O)N[C@H](C)c3cc(C(=N)N)cs3)cc2)cc1 [Compound 47, (2S,4R)—N—((R)-1-(4-carbamimidoylthiophen-2-yl)ethyl)-4-(difluoromethoxy)-1-((4-(4-isopropylphenoxy)benzoyl)glycyl)pyrrolidine-2-carboxamide] | < 100
C[C@@H](NC(=O)[C@@H]1C[C@@H](Oc2ccccc2)CN1C(=O)CNC(=O)c1ccc(Oc2ccc(F)cc2)cc1)c1cc(C(=N)N)cs1 [Compound 37, (2S,4R)—N—((R)-1-(4-carbamimidoylthiophen-2-yl)ethyl)-1-((4-(4-fluorophenoxy)benzoyl)glycyl)-4-phenoxypyrrolidine-2-carboxamide] | < 100
C[C@@H](NC(=O)[C@@H]1C[C@](F)(CF)CN1C(=O)CNC(=O)c1ccc2c(c1)-c1ccccc1C2(C)C)c1cc(C(=N)N)cs1 [Compound 153, (2S,4R)—N—((R)-1-(4-carbamimidoylthiophen-2-yl)ethyl)-1-((9,9-dimethyl-9H-fluorene-3-carbonyl)glycyl)-4-fluoro-4-(fluoromethyl)pyrrolidine-2-carboxamide] | < 100
CC(=O)ONC(=N)c1csc([C@@H](C)NC(=O)[C@@H]2CC3(CN2C(=O)CNC(=O)c2ccc4c(c2)-c2ccccc2C4(F)F)OCCO3)c1 [Compound 125, (S)—N—((R)-1-(4-(N-acetoxycarbamimidoyl)thiophen-2-yl)ethyl)-7-((9,9-difluoro-9H-fluorene-3-carbonyl)glycyl)-1,4-dioxa-7-azaspiro[4.4]nonane-8-carboxamide] | < 100
C[C@@H](NC(=O)[C@@H]1C[C@]2(CO)C[C@@H]2N1C(=O)CNC(=O)c1ccc2c(c1)-c1ccccc1C2(F)F)c1cc(C(=N)N)cs1 [Compound 53, (1S,3S,5R)—N—((R)-1-(4-carbamimidoylthiophen-2-yl)ethyl)-2-((9,9-difluoro-9H-fluorene-3-carbonyl)glycyl)-5-(hydroxymethyl)-2-azabicyclo [3.1.0]hexane-3-carboxamide] | < 100

Same assay, conditions: Human complement C1s enzyme 1.16 nM, substrate Z-L-Lys-SBzl 100 μM, assay of Example 3; read-out: IC50 (Stars)

Structure (SMILES) | IC50 [nM]
CC1(C)c2ccccc2-c2cc(C(=O)NCC(=O)N3C[C@H](S(C)(=O)=O)C[C@H]3C(=O)N[C@H](CO)c3cc(C(=N)N)cs3)ccc21 [Compound 380, (2S,4R)—N—((R)-1-(4-carbamimidoylthiophen-2-yl)-2-hydroxyethyl)-1-((9,9-dimethyl-9H-fluorene-3-carbonyl)glycyl)-4-(methylsulfonyl) pyrrolidine-2-carboxamide] | < 100
N=C(N)c1csc(CNC(=O)[C@@H]2CC3(CN2C(=O)CN2CCc4cc(-c5ccc(F)cc5)ccc4C2=O)OCCO3)c1 [Compound 255, (S)—N-((4-carbamimidoylthiophen-2-yl)methyl)-7-(2-(6-(4-fluorophenyl)-1-oxo-3,4-dihydroisoquinolin-2(1H)-yl)acetyl)-1,4-dioxa-7-azaspiro[4.4]nonane-8-carboxamide] | > 1000
COC(=O)/N=C(/N)c1csc([C@@H](C)NC(=O)[C@@H]2C[C@@H](OC(F)F)CN2C(=O)CNC(=O)c2ccc3c(c2)-c2ccccc2C3(F)F)c1 [Compound 247, methyl ((E)-amino(5-((R)-1-((2S,4R)-1-((9,9-difluoro-9H-fluorene-3-carbonyl)glycyl)-4-(difluoromethoxy)pyrrolidine-2-carboxamido)ethyl)thiophen-3-yl)methylene)carbamate] | < 100
C[C@@H](NC(=O)[C@@H]1C[C@](F)(CF)CN1C(=O)CNC(=O)c1ccc2c(c1)Oc1ccccc1S2)c1cc(C(=N)N)cs1 [Compound 327, (2S,4R)—N—((R)-1-(4-carbamimidoylthiophen-2-yl)ethyl)-4-fluoro-4-(fluoromethyl)-1-((phenoxathiine-3-carbonyl)glycyl)pyrrolidine-2-carboxamide] | < 100
C[C@@H](NC(=O)[C@@H]1CC2(CN1C(=O)Cc1ccc(-c3ccc(F)cc3F)cc1)OCCO2)c1cc(C(=N)N)cs1 [Compound 321, (S)—N—((R)-1-(4-carbamimidoylthiophen-2-yl)ethyl)-7-(2-(2′,4′-difluoro-[1,1′-biphenyl]-4-yl)acetyl)-1,4-dioxa-7-azaspiro[4.4]nonane-8-carboxamide] | < 100
C[C@@H](NC(=O)[C@@H]1C[C@@H](OC(F)F)CN1C(=O)CNC(=O)c1ccc2c(c1)C(C)(C)c1ccccc1-2)c1cc(C(=N)N)cs1 [Compound 348, (2S,4R)-N-((R)-1-(4-carbamimidoylthiophen-2-yl)ethyl)-4-(difluoromethoxy)-1-((9,9-dimethyl-9H-fluorene-2-carbonyl)glycyl) pyrrolidine-2-carboxamide] | < 100
C[C@@H](NC(=O)[C@@H]1C[C@]2(COCCCN)C[C@@H]2N1C(=O)CNC(=O)c1ccc2c(c1)-c1ccccc1C2(F)F)c1cc(C(=N)N)cs1 [Compound 382, (1S,3S,5R)-5-((3-aminopropoxy)methyl)-N—((R)-1-(4-carbamimidoylthiophen-2-yl)ethyl)-2-((9,9-difluoro-9H-fluorene-3-carbonyl)glycyl)-2-azabicyclo[3.1.0]hexane-3-carboxamide] | < 100
O=C(NCC(=O)N1CC2(C[C@H]1C(=O)NCc1cc(Nc3nccs3)cs1)OCCO2)c1ccc(Oc2ccc(F)cc2)cc1 [Compound 282, (S)-7-((4-(4-fluorophenoxy)benzoyl)glycyl)-N-((4-(thiazol-2-ylamino)thiophen-2-yl)methyl)-1,4-dioxa-7-azaspiro[4.4]nonane-8-carboxamide] | > 1000
C[C@@H](NC(=O)[C@@H]1C[C@@H](OC(F)F)CN1C(=O)CNC(=O)c1ccc2c(c1)Oc1ccccc1S2)c1cc(C(=N)N)cs1 [Compound 328, (2S,4R)—N—((R)-1-(4-carbamimidoylthiophen-2-yl)ethyl)-4-(difluoromethoxy)-1-((phenoxathiine-3-carbonyl)glycyl)pyrrolidine-2-carboxamide] | < 100
O=C(NCC(=O)N1CC2(C[C@H]1C(=O)NCc1cc(N3CCCC3)cs1)OCCO2)c1ccc(Oc2ccc(F)cc2)cc1 [Compound 289, (S)-7-((4-(4-fluorophenoxy)benzoyl)glycyl)-N-((4-(pyrrolidin-1-yl)thiophen-2-yl)methyl)-1,4-dioxa-7-azaspiro[4.4]nonane-8-carboxamide] | 100 to 1000
C[C@@H](NC(=O)[C@@H]1C[C@@H](S(=O)(=O)C2CC2)CN1C(=O)CNC(=O)c1ccc2c(c1)-c1ccccc1C2(F)F)c1cc(C(=N)N)cs1 [Compound 351, (2S,4R)—N—((R)-1-(4-carbamimidoylthiophen-2-yl)ethyl)-4-(cyclopropylsulfonyl)-1-((9,9-difluoro-9H-fluorene-3-carbonyl)glycyl)pyrrolidine-2-carboxamide] | < 100

Same assay, conditions: Human complement C1s enzyme 1.16 nM, substrate Z-L-Lys-SBzl; assay of Example 3; read-out: IC50 (Stars)

Structure (SMILES) | IC50 [nM]
CC1c2ccccc2-c2cc(C(=O)NCC(=O)N3C[C@H](OC(F)F)C[C@H]3C(=O)N[C@H](C)c3cc(C(=N)N)cs3)ccc21 (stereo partly drawn) [Compound 421, (2S,4R)-N-((R)-1-(4-carbamimidoylthiophen-2-yl)ethyl)-4-(difluoromethoxy)-1-((9-methyl-9H-fluorene-3-carbonyl)glycyl) pyrrolidine-2-carboxamide] | < 100
CC1(C)c2ccccc2-c2cc(C(=O)NCC(=O)N3C[C@@](F)(CF)C[C@H]3C(=O)N[C@H](CO)c3cc(C(=N)N)cs3)ccc21 [Compound 401, (2S,4R)—N—((R)-1-(4-carbamimidoylthiophen-2-yl)-2-hydroxyethyl)-1-((9,9-dimethyl-9H-fluorene-3-carbonyl)glycyl)-4-fluoro-4-(fluoromethyl)pyrrolidine-2-carboxamide] | < 100
